Source: patent US20080090770A1, “Modulation of Muc1 Mediated Signal Transduction” (priority 2003, published 2008)

How the values were obtained:
[1] = test system: PDZ domains; experiment: Self-competition experiments in modified ELISA; type: binding, human; settings: of the three peptides tested
[2] = molecular target: T1, biotinylated TAT-MUC1 binding to ZO1 d2 (Homo sapiens, UniProt Q07157); experiment: Modified ELISA: competition with binding of biotinylated TAT-MUC1 peptide (SEQ ID NO: 134) to PDZ domain
T1 construct: made in house; host or cells: E. coli
T1 sequence (Q07157 186-264 limits assumed): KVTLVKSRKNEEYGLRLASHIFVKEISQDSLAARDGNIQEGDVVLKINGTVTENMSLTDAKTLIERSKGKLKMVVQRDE

[3] = molecular target: T2, KIAA0751 (RIM2) PDZ domain 1 (Homo sapiens, UniProt Q9UQ26); experiment: Modified ELISA: titration of biotinylated peptide against GST-PDZ domain fusion protein; type: binding
T2 construct: RIM2, PDZ domain 1: GI#: 12734165; made in house; host or cells: E. coli
T2 sequence (Q9UQ26 668-754 limits assumed): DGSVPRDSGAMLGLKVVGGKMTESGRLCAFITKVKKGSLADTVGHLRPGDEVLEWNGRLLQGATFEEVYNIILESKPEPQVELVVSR
Description: Coat plate with 100 μl of 5 μg/ml anti-GST, O/N at 4° C.;
Dump contents of plate & out tap dry on paper towels;
Block with 200 μl Assay Buffer for 2 hrs at room temperature;
Prepare proteins in Assay Buffer;
Add proteins at 50 μl per well, incubate 1 to 2 hrs at 4° C.;
Prepare peptides in Assay Buffer;
Add peptides at 50 μl per well on ice (write time on plate);
Incubate on ice after last peptide has been added for exactly 10 minutes;
Place at room temp for exactly 20 minutes;
Prepare HRP-Streptavidin within 10 minutes of time of use;
Promptly wash 3× with cold PBS;
Add 100 μl per well of HRP-Streptavidin (write time on plate);
Incubate at 4° C. for exactly 20 minutes;
Turn on plate reader and prepare files;
Promptly wash 5× with PBS at room temperature;
Add 100 μl/well TMB substrate (write time on plate);
Incubate in dark at room temp for a maximum of 30 minutes;
Read plate at 25 minutes (650 nm);
Stop reaction with 100 μl of 0.18M H2SO4, 30 min. after adding TMB;
Take last reading at 450 nm soon after stopping reaction;
Titrations to determine relative EC50 values: Peptide corresponding to MUC1 was then titrated against a constant amount of the PDZ domain-containing recombinant proteins identified in the first part of this example.
Using the modified ELISA described supra in Example 6, the effect of two variant carboxy-terminal MUC1 peptides were examined. Two MUC1 isoforms with an A/T substitutions at the fifth amino acid residue from the carboxy-terminal end have been reported in the literature, e.g., carboxy-terminal AAASANL disclosed in GenBank P15941 [gi:547937] and carboxy-terminal AATSANL disclosed in GenBank A35175 [gi:11385307]. Peptides were prepared consisting of the TAT sequence SEQ ID NO: 102 and the terminal nine amino acid residues of the relevant MUC1 sequence, i.e., […]
Using the modified ELISA described supra in Example 7, the binding to the RIM2 PDZ domain of the biotinylated peptide sequences listed in Table 8 were examined. […] Relative EC50 values were calculated from a curve fit of the data for each interaction.

Sequence: YGRKKRRQRRRQDEEEGIWA [SEQ ID NO: 137]
- Behaviour in self-competition experiments [1]: acts the most like a traditional competitive inhibitor
- Competition for binding of biotinylated SEQ ID NO: 134 (TAT-MUC1) [2]: only a relatively weak competitor
- EC50 for binding to RIM2, compared with SEQ ID NO: 136 [3]: lower EC50
- Selectivity of binding, RIM2 versus ZO 1 d2 [3]: binds RIM2 more strongly than ZO 1 d2
- Tightness of binding to RIM2 among the three peptides ([3]; comparison of SEQ ID NO: 136, 137, 138): binds most tightly
